Data: patent US10369122B2, “Benzene-1,3,5-tricarboxamide derivatives and uses thereof” (OHIO STATE INNOVATION FOUNDATION, priority 2015, dated 2019)

Test system: Hep3B cells
Assay: TT LLNs-mediated luciferase transfection assay
Type: cell-based, human
Conditions: for K1 (average luminescence intensity, Kn = ΣRLIn/4): level 1 of the component; for K2 (average luminescence intensity, Kn = ΣRLIn/4): level 2 of the component; for K3 (average luminescence intensity, Kn = ΣRLIn/4): level 3 of the component; for K4 (average luminescence intensity, Kn = ΣRLIn/4): level 4 of the component
Procedure: R. et. al. J. Am. Chem. Soc. 2011, 133, 8995-9004). After formulation, the freshly formed […] were used immediately for cell transfection. For in vivo studies, the freshly prepared LLNs were then dialyzed against PBS buffer using Slide-A-Lyzer dialysis cassettes (3.5 K MWCO, Life Technologies, Grand island, N.Y.). […] Entrapment efficiency of LLNs was determined using the Ribogreen assay reported previously (Love Kevin, T. et. al. Proc. Natl. Acad. Sci. […] Chen, D. et. al. J. Am. Chem. Soc. 2012, 134, 6948-6951). TT LLNs-Mediated Luciferase Transfection Assay. The human hepatocellular carcinoma cell line Hep3B was purchased from American Type Culture Collection (Manassas, Va.) and maintained at 37° C. with 5% CO2 in Eagle's Minimum Essential Medium (MEM) supplemented with 10% heat inactivated FBS. […] Transfections were performed in triplicate. After 6 h of transfection, culture medium containing TT LLNs was carefully removed, and 50 μL of serum-free EMEM and 50 μL of Bright-Glo luciferase substrate were mixed and added to each well. […] Free Flue mRNA served as a negative control. Orthogonal Array Experimental Design. In order to identify a preferred molar ratio of the formulation components, an orthogonal array experiment design was utilized. Four formulation components were assigned in the following orthogonal experiments with a fixed TT/mRNA ratio (10/1). TT3S-DOPE LLNs 1-1 to 1-16 were prepared according to the orthogonal array design table L16(4)^4 and used to transfect Hep3B cells (Table 2). […] On the basis of the result of the first round of nanoparticle formulation, the levels of each factor were further refined, and the second round orthogonal experiment with 16 formulations TT3-DOPE LLNs 2-1 to 2-16 was conducted (Table 4). A similar analysis was performed as described above.

1,2-dimyristoyl-sn-glycerol, methoxypolyethylene glycol-2000 [DMG-PEG2000]
ΔK = Kmax − Kmin (impact of the component on mRNA delivery) (first round of TT3-DOPE LLNs): 1121 | K1 (average luminescence intensity, Kn = ΣRLIn/4) (first round of TT3-DOPE LLNs): 1295 | K2 (average luminescence intensity, Kn = ΣRLIn/4) (first round of TT3-DOPE LLNs): 407 | K3 (average luminescence intensity, Kn = ΣRLIn/4) (first round of TT3-DOPE LLNs): 424 | K4 (average luminescence intensity, Kn = ΣRLIn/4) (first round of TT3-DOPE LLNs): 174 | ΔK = Kmax − Kmin (impact of the component on mRNA delivery) (second round of TT3-DOPE LLNs): 43788 | K1 (average luminescence intensity, Kn = ΣRLIn/4) (second round of TT3-DOPE LLNs): 56896 | K2 (average luminescence intensity, Kn = ΣRLIn/4) (second round of TT3-DOPE LLNs): 56833 | K3 (average luminescence intensity, Kn = ΣRLIn/4) (second round of TT3-DOPE LLNs): 42863 | K4 (average luminescence intensity, Kn = ΣRLIn/4) (second round of TT3-DOPE LLNs): 13109

CC(C)CCC[C@@H](C)[C@H]1CC[C@H]2[C@@H]3CC=C4C[C@@H](O)CC[C@]4(C)[C@H]3CC[C@]12C [Cholesterol, cholesterol]
ΔK = Kmax − Kmin (impact of the component on mRNA delivery) (first round of TT3-DOPE LLNs): 1121 | K1 (average luminescence intensity, Kn = ΣRLIn/4) (first round of TT3-DOPE LLNs): 108 | K2 (average luminescence intensity, Kn = ΣRLIn/4) (first round of TT3-DOPE LLNs): 1229 | K3 (average luminescence intensity, Kn = ΣRLIn/4) (first round of TT3-DOPE LLNs): 428 | K4 (average luminescence intensity, Kn = ΣRLIn/4) (first round of TT3-DOPE LLNs): 535 | ΔK = Kmax − Kmin (impact of the component on mRNA delivery) (second round of TT3-DOPE LLNs): 18025 | K1 (average luminescence intensity, Kn = ΣRLIn/4) (second round of TT3-DOPE LLNs): 29028 | K2 (average luminescence intensity, Kn = ΣRLIn/4) (second round of TT3-DOPE LLNs): 35974 | K3 (average luminescence intensity, Kn = ΣRLIn/4) (second round of TT3-DOPE LLNs): 47647 | K4 (average luminescence intensity, Kn = ΣRLIn/4) (second round of TT3-DOPE LLNs): 57052

CCCCCCCC/C=C\CCCCCCCC(=O)OC[C@H](COP(=O)(O)OCCN)OC(=O)CCCCCCC/C=C\CCCCCCCC [DOPE, 1,2-dioleoyl-sn-glycero-3-phosphoethanolamine]
ΔK = Kmax − Kmin (impact of the component on mRNA delivery) (first round of TT3-DOPE LLNs): 1231 | K1 (average luminescence intensity, Kn = ΣRLIn/4) (first round of TT3-DOPE LLNs): 325 | K2 (average luminescence intensity, Kn = ΣRLIn/4) (first round of TT3-DOPE LLNs): 369 | K3 (average luminescence intensity, Kn = ΣRLIn/4) (first round of TT3-DOPE LLNs): 188 | K4 (average luminescence intensity, Kn = ΣRLIn/4) (first round of TT3-DOPE LLNs): 1419 | ΔK = Kmax − Kmin (impact of the component on mRNA delivery) (second round of TT3-DOPE LLNs): 19529 | K1 (average luminescence intensity, Kn = ΣRLIn/4) (second round of TT3-DOPE LLNs): 33465 | K2 (average luminescence intensity, Kn = ΣRLIn/4) (second round of TT3-DOPE LLNs): 38426 | K3 (average luminescence intensity, Kn = ΣRLIn/4) (second round of TT3-DOPE LLNs): 52995 | K4 (average luminescence intensity, Kn = ΣRLIn/4) (second round of TT3-DOPE LLNs): 44816
